Measured values from ChEMBL document CHEMBL4673282, “Identification of a New Heterocyclic Scaffold for Inhibitors of the Polo-Box Domain of Polo-like Kinase 1” (J Med Chem, 2020).
Values after ≈ are worked out from the molar mass of the structure shown.

Assays:
[1] = Half life in rat liver microsomes at 1 uM measured up to 60 mins in presence of NADPH generating system; details: 1 h
[2] = Aqueous solubility of compound; assay type: physicochemical; details: buffer
in vitro = details: PAMPA
Description: Permeability of the compound by PAMPA

| Structure (SMILES) | t1/2 [1] [min] | solubility [2] | Papp (in vitro) [×10⁻⁶ cm/s] |
| --- | --- | --- | --- |
| NCCCn1c(=O)c2cccc(F)c2n2c(=S)[nH]nc12 | > 30 | – | – |
| O=c1c2ccncc2n2c(=S)[nH]nc2n1CCc1ccccc1 | 15.8 | 17.3 µg/mL (≈ 53.5 µM) | 202 |
| O=C(Cc1cccc(C(F)(F)F)c1)NCCCn1c(=O)c2cc(F)ccc2n2c(=S)[nH]nc12 | 17.3 | – | – |
| O=c1c2cccnc2n2c(=S)[nH]nc2n1CCc1ccccc1 | > 30 | 4.9 µg/mL (≈ 15.2 µM) | – |
| CC(C)(C)[C@H]1CC[C@H](C(=O)NCCCn2c(=O)c3cc(F)ccc3n3c(=S)[nH]nc23)CC1 | > 30 | 1.1 µg/mL (≈ 2.39 µM) | – |
| CC(C)(C)OC(=O)N1CCN(CCn2c(=O)c3cc(F)ccc3n3c(=S)[nH]nc23)CC1 | 26.3 | 20.5 µg/mL (≈ 45.7 µM) | – |
| CC(C)n1c(=O)c2ccccc2n2c(=S)[nH]nc12 | – | 19.5 µg/mL (≈ 74.9 µM) | – |
| CCCn1c(=O)c2ccccc2n2c(=S)n(CN(C)C3CC3)nc12 | – | Insoluble | – |
| CC(=O)NCCn1c(=O)c2cc(F)ccc2n2c(=S)[nH]nc12 | > 30 | > 47 µg/mL | – |
| O=C(Cc1cccc(F)c1)NCCCn1c(=O)c2cc(F)ccc2n2c(=S)[nH]nc12 | 26.5 | > 63 µg/mL | – |
| O=C(Cc1ccncc1)NCCCn1c(=O)c2cc(F)ccc2n2c(=S)[nH]nc12 | > 30 | – | < 1 |
| O=C(Cc1cccc(Cl)c1)NCCCn1c(=O)c2cc(F)ccc2n2c(=S)[nH]nc12 | 8.4 | > 66 µg/mL | – |
| CCn1c(=O)c2cc(F)ccc2n2c(=S)[nH]nc12 | > 30 | > 39 µg/mL | – |
| CC(C)(C)OC(=O)NCCOCCOCCOCCC(=O)NCCCn1c(=O)c2cc(F)ccc2n2c(=S)[nH]nc12 | 27.9 | > 88 µg/mL | – |
| O=C(Cc1ccccc1C(F)(F)F)NCCCn1c(=O)c2cc(F)ccc2n2c(=S)[nH]nc12 | 3.7 | – | – |
| CN1CCCC1CCn1c(=O)c2cc(F)ccc2n2c(=S)[nH]nc12 (racemic) | > 30 | 17.8 µg/mL (≈ 51.2 µM) | – |
| O=C(NCCCn1c(=O)c2cc(F)ccc2n2c(=S)[nH]nc12)C1CCNCC1 | > 30 | > 60 µg/mL | – |
| O=c1c2cc(F)ccc2n2c(=S)[nH]nc2n1CCc1ccccc1Cl | 22.8 | 3 µg/mL (≈ 8 µM) | – |
| N#Cc1ccc(CC(=O)NCCCn2c(=O)c3cc(F)ccc3n3c(=S)[nH]nc23)cc1 | > 30 | – | – |
| O=c1c2cc(I)ccc2n2c(=S)[nH]nc2n1CCc1ccccc1 | > 30 | < 1 µg/mL | – |
| O=C(NCCCn1c(=O)c2cc(F)ccc2n2c(=S)[nH]nc12)c1ccc(Cn2ccnc2)cc1 | > 30 | – | – |
| O=c1c2cc(F)ccc2n2c(=S)[nH]nc2n1CCc1ccccc1 | > 30 | – | 77 |

| Structure (SMILES) | t1/2 [1] [min] | solubility [2] | Papp (in vitro) [×10⁻⁶ cm/s] |
| --- | --- | --- | --- |
| O=C(NCCCn1c(=O)c2cc(F)ccc2n2c(=S)[nH]nc12)C1CCCNC1 (racemic) | > 30 | 29.6 µg/mL (≈ 73.2 µM) | – |
| CCOP(=O)(CCn1c(=O)c2cc(F)ccc2n2c(=S)[nH]nc12)OCC | > 30 | > 59 µg/mL | – |
| O=c1c2cc(F)ccc2n2c(=S)[nH]nc2n1CCCc1ccccc1 | 8.8 | < 1 µg/mL | – |
| CS(=O)(=O)NCCn1c(=O)c2cc(F)ccc2n2c(=S)[nH]nc12 | > 30 | > 53 µg/mL | – |
| Cc1ccc2c(c1)c(=O)n(CCc1ccccc1)c1n[nH]c(=S)n21 | > 30 | < 1 µg/mL | – |
| O=c1c2ccccc2n2c(=O)[nH]nc2n1CCc1ccccc1 | – | < 1 µg/mL | – |
| CCCn1c(=O)c2ccccc2n2c(=S)[nH]nc12 | > 30 | – | – |
| N[C@@H](CCC(=O)O)C(=O)NCCOCCOCCOCCOCCC(=O)NCCCn1c(=O)c2cc(F)ccc2n2c(=S)[nH]nc12 | > 30 | > 99 µg/mL | – |
| O=C(Cc1ccc(F)cc1)NCCCn1c(=O)c2cc(F)ccc2n2c(=S)[nH]nc12 | 26.3 | – | – |
| O=c1c2cc(F)ccc2n2c(=S)[nH]nc2n1CCP(=O)(O)O | – | > 51 µg/mL | – |
| N#Cc1ccccc1CC(=O)NCCCn1c(=O)c2cc(F)ccc2n2c(=S)[nH]nc12 | > 30 | – | – |
| NCCn1c(=O)c2cc(F)ccc2n2c(=S)[nH]nc12 | > 30 | > 41 µg/mL | – |
| CC(C)(C)OC(=O)N1CC(CCn2c(=O)c3cc(F)ccc3n3c(=S)[nH]nc23)C1 | – | 15 µg/mL (≈ 35.8 µM) | 229 |
| CS(=O)(=O)NCCCn1c(=O)c2cc(F)ccc2n2c(=S)[nH]nc12 | > 30 | 34 µg/mL (≈ 91.5 µM) | – |
| CN1CCN(CCn2c(=O)c3cc(F)ccc3n3c(=S)[nH]nc23)CC1 | > 30 | > 54 µg/mL | – |
| O=c1c2ncccc2n2c(=S)[nH]nc2n1CCc1ccccc1 | > 30 | 26.9 µg/mL (≈ 83.2 µM) | – |
| CC(C)(C)OC(=O)CC[C@H](NC(=O)OC(C)(C)C)C(=O)NCCCn1c(=O)c2cc(F)ccc2n2c(=S)[nH]nc12 | 3.8 | 41.6 µg/mL (≈ 71.9 µM) | – |
| O=C(NCCCn1c(=O)c2cc(F)ccc2n2c(=S)[nH]nc12)C1CCCCN1 (racemic) | > 30 | > 60 µg/mL | – |
| Cc1nnc2n(CCc3ccccc3)c(=O)c3cc(F)ccc3n12 | 10.7 | 11 µg/mL (≈ 34.1 µM) | – |
| CCCn1c(=O)c2ccccc2n2c(=S)n(CN(CC)CC3CC3)nc12 | – | 8.7 µg/mL (≈ 23.4 µM) | – |
| COc1ccccc1CC(=O)NCCCn1c(=O)c2cc(F)ccc2n2c(=S)[nH]nc12 | 16.1 | > 65 µg/mL | – |
| NCCCCCC(=O)NCCCn1c(=O)c2cc(F)ccc2n2c(=S)[nH]nc12 | > 30 | 31.8 µg/mL (≈ 78.2 µM) | – |

| Structure (SMILES) | t1/2 [1] [min] | solubility [2] | Papp (in vitro) [×10⁻⁶ cm/s] |
| --- | --- | --- | --- |
| CC(C)NC(=O)CCn1c(=O)c2cc(Cl)ccc2n2c(=S)[nH]nc12 | – | 8.1 µg/mL (≈ 22.1 µM) | – |
| O=C(Cc1ccccn1)NCCCn1c(=O)c2cc(F)ccc2n2c(=S)[nH]nc12 | > 30 | – | – |
| CC(C)CNC(=O)CCn1c(=O)c2ccccc2n2c(=S)[nH]nc12 | – | 30.8 µg/mL (≈ 89.2 µM) | – |
| CC(C)(C)OC(=O)CC[C@@H](NC(=O)OC(C)(C)C)C(=O)NCCCn1c(=O)c2cc(F)ccc2n2c(=S)[nH]nc12 | 25.1 | 20.4 µg/mL (≈ 35.3 µM) | – |
| O=C(CC1CCNCC1)NCCCn1c(=O)c2cc(F)ccc2n2c(=S)[nH]nc12 | > 30 | 37.5 µg/mL (≈ 89.6 µM) | – |
| O=C(Cc1cccnc1)NCCCn1c(=O)c2cc(F)ccc2n2c(=S)[nH]nc12 | > 30 | – | – |
| CC(C)(C)OC(=O)CC[C@H](N)C(=O)NCCOCCOCCOCCOCCC(=O)NCCCn1c(=O)c2cc(F)ccc2n2c(=S)[nH]nc12 | > 30 | > 107 µg/mL | – |
| O=C(NCCCn1c(=O)c2cc(F)ccc2n2c(=S)[nH]nc12)C1CCOCC1 | – | < 1 µg/mL | 8 |
| O=c1c2cc(N3CCOCC3)ccc2n2c(=S)[nH]nc2n1CCc1ccccc1 | > 30 | 3.4 µg/mL (≈ 8.34 µM) | – |
| CC(C)(C)OC(=O)Nc1ccc(CC(=O)NCCCn2c(=O)c3cc(F)ccc3n3c(=S)[nH]nc23)cc1 | > 30 | – | – |
| NC1CCC(C(=O)NCCCn2c(=O)c3cc(F)ccc3n3c(=S)[nH]nc23)CC1 (racemic) | > 30 | 38.8 µg/mL (≈ 92.7 µM) | – |
| O=C(Cc1ccc(O)cc1)NCCCn1c(=O)c2cc(F)ccc2n2c(=S)[nH]nc12 | > 30 | – | – |
| O=C(Cc1ccccc1)NCCCn1c(=O)c2cc(F)ccc2n2c(=S)[nH]nc12 | 18.7 | – | – |
| CCCn1c(=O)c2cc(F)ccc2n2c(=S)[nH]nc12 | > 30 | > 28 µg/mL | – |
| CC(C)(C)OC(=O)CC[C@H](N)C(=O)NCCCn1c(=O)c2cc(F)ccc2n2c(=S)[nH]nc12 | > 30 | 37.5 µg/mL (≈ 78.4 µM) | – |
| O=c1c2cc(F)ccc2n2c(=S)[nH]nc2n1CCc1ccncc1 | > 30 | 10.9 µg/mL (≈ 31.9 µM) | – |
| N[C@@H](CCC(=O)O)C(=O)NCCCn1c(=O)c2cc(F)ccc2n2c(=S)[nH]nc12 | > 30 | 32 µg/mL (≈ 75.8 µM) | – |
| CC(C)OCCCn1c(=O)c2cc(Cl)ccc2n2c(=S)[nH]nc12 | – | 8.6 µg/mL (≈ 24.4 µM) | – |
| O=C(Cc1ccc(Br)cc1)NCCCn1c(=O)c2cc(F)ccc2n2c(=S)[nH]nc12 | 20.6 | < 1 µg/mL | – |
| NCCOCCOCCOCCC(=O)NCCCn1c(=O)c2cc(F)ccc2n2c(=S)[nH]nc12 | > 30 | 36.1 µg/mL (≈ 72.7 µM) | – |
| Cc1ccc(CC(=O)NCCCn2c(=O)c3cc(F)ccc3n3c(=S)[nH]nc23)cc1 | 23.9 | – | – |
| COc1ccc(CC(=O)NCCCn2c(=O)c3cc(F)ccc3n3c(=S)[nH]nc23)cc1 | > 30 | – | – |
